Source: patent US20090061461A1, “Phosphorylated or Non-Phosphorylated MPR as Diagnostic Marker or Therapeutic Target” (priority 2005, published 2009)

Assays:
[1] = test system: breast cancer exhibiting a positive ER status; settings: patients with breast cancer of positive ER status; cited from earlier work
[2] = test system: MCF-7 breast cancer cells; assay: Stable transfection of MCF-7 cells, colony formation / cell count after 2 weeks of selection; type: cell-based, human; settings: MCF-7 cells transfected with pcDNA3.1 HA-tagged mPR plasmid, 2 weeks hygromycin B selection
Protocol: Colonies were grown from all transfected cell lines. […] This anti-proliferative effect of both of these mutants was not observed using transiently transfected cells used for immunohistochemistry in cytospins because these were assayed shortly after transfection.
Therefore, treatments that would promote the formation of the hypophosphorylated dimeric form in tumors would be highly desirable. […] Therefore the interaction of an SH3-domain-containing protein that interacts with the SH3-domain target sequence that contains serine 56 is necessary to manifest the antiproliferative phenotype associated with non-phosphorylated serine 180. The interaction of this unknown protein is inhibited by phosphorylation of serine 56, thereby preventing the antiproliferative phenotype and enhancing proliferative ability. Conversely, when an SH2-domain-containing protein can bind to the phosphorylated tyrosine 179 adjacent to non-phosphorylated serine 180 then the antiproliferative effect is antagonized, and cells can proliferate. […]
MCF-7 cells stably transfected with mPR and mutants, respectively, were established. […] To that aim colonies were trypsinized, counted and diluted in two-fold dilutions.

DCC = target: T1, DCC (Homo sapiens, UniProt P43146); assay: Immune precipitation of DCC with HA-tagged mPR, Western blot with anti-DCC AF5; type: binding; settings: MCF7 cells, 24 hours after transfection, anti-HA immunoprecipitation
T1 construct: endogenous in cells; host or cells: MCF7 human breast cancer cells, transfected only with mPR-3HA expression plasmids
Protocol: Therefore it is most reasonable to assume that mPR will be detectable in a complex with DCC. […] Aliquots of 2×10^6 MCF7 cells were transfected as described below with each of the mPR expression vectors.
After 24 hours the mPR-3HA proteins were affinity purified with an anti-HA anti-body described above. The AF5 anti DCC human monoclonal antibody (Merck Biosciences OP45 Anti-DCC Mouse mAb AF5) was used to detect the presence of DCC by Western Blot. Normalized amounts of the precleared incubation reaction, the final supernatant after removal of the immuno-precipitate, and of the immuno-precipitated pellet were loaded to SDS-PAGE gels, blotted to membranes, and Western Blotted with the AF5 anti-DCC antibody. […] The size of the band was slightly higher than the predicted 158 kDa for DCC, possibly due to post-translational modification of the protein. An approximately 100 kDa band also reacted with the anti-DCC monoclonal antibody in Western Blot, which may represent a proteolytic fragment of DCC. […] We are not naively claiming a phosphorylated form of mPR interacts with DCC, which is not shown by our data. […]
MCF-7 breast cancer cells were transfected by Lipofection with 5 μg of pcDNA3.1 containing HA-tagged mPR-wt, tagged mutant S56A, S180A, S56A/S180A, or tagged mutant S56A/C128S/[…]. […] For IP the cells were trypsinized, counted and cell pellets were snap frozen and stored at −80° C. […]

T1 sequence (P43146 26-1447): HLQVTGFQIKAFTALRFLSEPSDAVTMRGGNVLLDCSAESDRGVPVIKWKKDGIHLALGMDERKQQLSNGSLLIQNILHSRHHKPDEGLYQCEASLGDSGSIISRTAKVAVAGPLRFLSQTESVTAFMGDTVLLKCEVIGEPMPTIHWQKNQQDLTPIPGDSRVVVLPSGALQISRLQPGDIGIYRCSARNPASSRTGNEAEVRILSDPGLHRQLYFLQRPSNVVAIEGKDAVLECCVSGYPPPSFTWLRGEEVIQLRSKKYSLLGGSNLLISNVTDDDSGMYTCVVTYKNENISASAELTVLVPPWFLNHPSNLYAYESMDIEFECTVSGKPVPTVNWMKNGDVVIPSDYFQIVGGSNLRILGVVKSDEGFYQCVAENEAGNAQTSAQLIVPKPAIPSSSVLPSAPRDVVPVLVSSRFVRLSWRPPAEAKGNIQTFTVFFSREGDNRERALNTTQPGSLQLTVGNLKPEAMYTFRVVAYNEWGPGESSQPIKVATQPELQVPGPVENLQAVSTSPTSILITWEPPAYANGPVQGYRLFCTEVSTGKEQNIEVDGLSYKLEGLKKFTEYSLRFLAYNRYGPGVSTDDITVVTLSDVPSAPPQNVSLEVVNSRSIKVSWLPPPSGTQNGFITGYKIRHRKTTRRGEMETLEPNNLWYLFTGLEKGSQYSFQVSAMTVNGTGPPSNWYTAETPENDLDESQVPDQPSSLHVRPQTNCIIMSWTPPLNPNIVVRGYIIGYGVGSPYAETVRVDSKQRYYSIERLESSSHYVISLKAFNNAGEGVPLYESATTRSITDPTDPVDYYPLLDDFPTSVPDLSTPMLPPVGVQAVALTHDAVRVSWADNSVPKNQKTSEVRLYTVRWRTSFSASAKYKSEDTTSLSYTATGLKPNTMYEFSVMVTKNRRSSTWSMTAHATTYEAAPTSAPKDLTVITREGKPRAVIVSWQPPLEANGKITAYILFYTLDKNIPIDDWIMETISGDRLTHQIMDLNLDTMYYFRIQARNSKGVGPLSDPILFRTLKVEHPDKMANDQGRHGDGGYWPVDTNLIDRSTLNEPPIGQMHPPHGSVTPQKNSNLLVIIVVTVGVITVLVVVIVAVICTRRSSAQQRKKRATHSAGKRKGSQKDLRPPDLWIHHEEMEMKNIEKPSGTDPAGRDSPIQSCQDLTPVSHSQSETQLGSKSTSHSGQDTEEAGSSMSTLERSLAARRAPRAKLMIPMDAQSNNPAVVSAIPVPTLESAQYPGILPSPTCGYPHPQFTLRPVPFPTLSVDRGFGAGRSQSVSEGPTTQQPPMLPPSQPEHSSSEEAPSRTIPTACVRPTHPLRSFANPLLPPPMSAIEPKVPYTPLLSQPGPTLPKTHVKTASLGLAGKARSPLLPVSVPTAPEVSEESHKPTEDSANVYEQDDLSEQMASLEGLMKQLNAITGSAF

Row | Molecule | number of colonies / ability to proliferate [2] | also measured
1 | CC/C(=C(\c1ccccc1)c1ccc(OCCN(C)C)cc1)c1ccccc1 [tamoxifen] | – | fraction of cases in which effective [1]: approximately 50%
2 | S56A/C128S/S180A: HA-tagged mPR triple mutant: serine 56 and 180 to alanine, cysteine 128 to serine | able to proliferate | –
3 | S56A/S180A: HA-tagged mPR (PGRMC1) with serine 56 and serine 180 mutated to alanine, expressed from plasmid pcDNA3.1 | drastically reduced to effectively background levels | –
4 | wild-type mPR: HA-tagged wild-type membrane associated progesterone receptor component 1 expressed from pcDNA3_MPR-3HA | – | DCC band in immune precipitation pellet (DCC): A high molecular weight DCC band was observed
